Literature values, collected in patent US7041819B2, “Halogenated calixpyrroles and uses thereof” (Board of Regents, The University of Texas System, priority 1996, dated 2006).

Tests used:
[1] = acetonitrile-d3 (0.5% v/v D2O) at 22° C.; Anzenbacher et al. 1999; cited from earlier work
[2] = acetonitrile-d3 (0.5% v/v D2O) at 22° C.; Anzenbacher et al. 1999; cited from earlier work; remark: listed apart in the source
[3] = acetonitrile-d3 (0.5% v/v D2O) at 22° C.; Anzenbacher et al. 1999; cited from earlier work; remark: listed apart in the source
[4] = acetonitrile-d3 (0.5% v/v D2O) at 22° C.; Anzenbacher et al. 1999; cited from earlier work; remark: listed apart in the source

In the case of “meso-octamethylcalix[4]pyrrole [Compound 1]”, the “Affinity constant, H2PO4^−” value [1] is listed as 1 300 mol^−1, the “Affinity constant, Cl^−” value [2] is listed as 5 000 mol^−1 and the “Affinity constant, F^−” value [3] is listed as >10 000 mol^−1. For the same substance, the “Affinity constant, DMSO-d6” value [4] was <5^c mol^−1.
